Here are results for 2 compounds from patent US11253565B2, “Nanoparticle ophthalmic composition for the treatment of ocular disorders or diseases” (Eye Pharma S.p.A., priority 2017, dated 2022).

Series [1] has as its system HTM cells. The series can be described thus: Genotoxic damage (comet test) in HTM cells. Format: cell-based, human. The note with it: treatment with substance only. Here is the method:
Commercially available endothelial cellular lines of sclerocorneal trabecular meshwork were used. Said lines undergone a physiological ageing lasted about 10 cycles of cellular replication, thus representing a validated in vitro model of sclerocorneal trabecular meshwork degeneration. Sclerocorneal human trabecular meshwork cells (HTM cells. ScienceCell Research Laboratories, CA, USA) were grown in a nutritional medium containing 10% v/v fetal bovine serum, 2 mM L-glutamine, penicillin (100 IU/mL) at 37° C. in the presence of 5% v/v CO2. […]
For the assessment of genotoxic damage, the comet test was used. […] In particular, the aspect of DNA fragmentation acquired by the comet test in HTM cells was evaluated. […] The images were then analysed at 400 magnifications by fluorescence microscope (Leica DMI 4000B) equipped with digital camera (Leica DFC 310 FX). For each slide a minimum of 100 nuclei were analysed by CASP imaging analysis system (Comet assay software project, http://www.casp.sourceforge.net). Single-strand and double-strand breaks were quantified in terms of “tail moment”, which is the product of the comet tail length multiplied by the total DNA fraction in the tail. […] The significance of differences among the various treatments was determined by ANOVA test.

Series [2] has as its system HTM cells. In words: Microscopic morphologic aspect of HTM cells in the different conditions of treatment. Format: cell-based, human. Particulars: treatment with substance only. How it is done:
(§1) Commercially available endothelial cellular lines of sclerocorneal trabecular meshwork were used. Said lines undergone a physiological ageing lasted about 10 cycles of cellular replication, thus representing a validated in vitro model of sclerocorneal trabecular meshwork degeneration. Sclerocorneal human trabecular meshwork cells (HTM cells. ScienceCell Research Laboratories, CA, USA) were grown in a nutritional medium containing 10% v/v fetal bovine serum, 2 mM L-glutamine, penicillin (100 IU/mL) at 37° C. in the presence of 5% v/v CO2. Once cells were semi-confluent (80% covering of the plate surface), cells were collected by treatment with trypsin/EDTA and distributed in multiwell microplates at a density of 7×10^3 cells/well. Cells at 80% confluence were pre-treated for 30 minutes with 50 μL of eye drops with different polyphenolic concentration (0.15% Perilla frutescens extract in 0.25% sodium hyaluronate (high eye drops) compared with a 0.10% Perilla frutescens extract in 0.25% sodium hyaluronate (standard eye drops)). […]

For series [3], the system named is Sclerocorneal human trabecular meshwork cells (HTM cells). In words: MTT cell viability test on HTM cells with or without H2O2 oxidative damage. Format: cell-based. The note with it: H2O2 only. Here is the method: as §1
At the end of the treatment, the culture medium was removed, and cell viability and genotoxic damage were evaluated. […]
In particular, cell viability was assessed using the metabolization test of 3-(4,5-dimethyithiazol-2-yl)-2,5-diphenyltetrazolium bromide (MTT). […] The results were analysed by ANOVA using the Statview statistic software.

The nature of series [4]: Corneal permeabilization / bioavailability test on whole ox eye with fluoresceine tracer. In kind it is in vitro ADME. The note with it: 30 minutes after application on anterior corneal surface. How it is done:
The bioavailability was tested on whole ox eye (in vitro test) and on rabbit eyes (test in vivo) by applying the eye drops on the anterior corneal surface. A fluorescent tracer (fluoresceine) was added to the eye drops to follow the intraocular pharmacokinetics thereof. The transcorneal distribution of the std eye drops was evaluated by a slit lamp with determination of the fluorescence on both sides of the corneal membrane. A fluorescent tracer was added to the eye drops in order to follow the intraocular pharmacokinetics thereof. […] At the end of the prescribed time, its adsorption through the anterior chamber was assessed using a slit lamp. […] After the treatment, the fluid contained in the anterior chamber was collected and subjected to spectrofluorimetric analysis for the quantification of the tracer able to cross the corneal membrane. For the analysis, a […] spectrofluorometer (Hitachi, Tokyo, Japan) calibrated on specific fluorescence characteristics of fluoresceine (excitation 500 nm, emission 561 nm) was used. […] The ability of the std eye drops, both as such and in nanoparticle form, to pass the corneal membrane was thus determined by analysis del fluorescent track present in the fluid in the anterior chamber 30 minutes after the application of the preparation on the anterior corneal surface.

On to `OO` [H2O2], for which the “DNA damage / fragmentation (comet test)” value in series [1] is given as “nuclei are massively dissolved with evident diffusion of the fragmented DNA”. In addition, the HTM cell morphology entry in series [2] is “cells take a rounded shape, separate from the substrate and reflect the light”. Moreover, the “cytopathic effect (MTT cell viability)” value in series [3] is on record as “substantial cytopathic effect”.
Take `O=C1OC2(c3ccc(O)cc3Oc3cc(O)ccc32)c2ccccc21` [fluoresceine, fluorescein sodium]: in series [4], the “fluorescent tracer in the fluid of the anterior chamber (spectrofluorimetry)” value is “conspicuous and specific positive signal”.
